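Five concentrations, 48 hours, 96-well plates. GI50 is the concentration that inhibits growth by half.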 Active and inactive are the calls of the source. Rule as the data show it: active = GI50 up to about 1.1 µM and inactive = higher.
Key:
Assay in all cases: NCI tumour cell line growth inhibition, 48 h
PC-3 = system: PC-3
UO-31 = system: UO-31
NCI-H226 = system: NCI-H226
MCF7 = system: MCF7
HOP-62 = system: HOP-62
T47D = system: T47D
SK-MEL-5 = system: SK-MEL-5
EKVX = system: EKVX
Malme-3M = system: Malme-3M
TK-10 = system: TK-10
UACC-257 = system: UACC-257
A549 = system: A549
SF-295 = system: SF-295
IGROV-1 = system: IGROV-1
DU-145 = system: DU-145
BT-549 = system: BT-549
OVCAR-5 = system: OVCAR-5
HCT-116 = system: HCT-116
SK-MEL-2 = system: SK-MEL-2
OVCAR-4 = system: OVCAR-4

Structure (SMILES) | GI50 (PC-3) | GI50 (UO-31) | GI50 (NCI-H226) | GI50 (MCF7) | GI50 (HOP-62) | GI50 (T47D) | GI50 (SK-MEL-5) | GI50 (EKVX) | GI50 (Malme-3M) | GI50 (TK-10) | GI50 (UACC-257) | GI50 (A549) | GI50 (SF-295) | GI50 (IGROV-1) | GI50 (DU-145) | GI50 (BT-549) | GI50 (OVCAR-5) | GI50 (HCT-116) | GI50 (SK-MEL-2) | GI50 (OVCAR-4)
C[C@H](c1ccccc1)n1c(N)c(-c2nc3ccccc3s2)c2ccc([N+](=O)[O-])cc2c1=O | 3.09 µM (inactive) | 3.83 µM (inactive) | 4.65 µM (inactive) | 9.27 µM (inactive) | 11.6 µM (inactive) | 1.58 µM (inactive) | 4.8 µM (inactive) | 25.1 µM (inactive) | 12.9 µM (inactive) | 10.2 µM (inactive) | 11.8 µM (inactive) | 9.98 µM (inactive) | 4.7 µM (inactive) | 8.13 µM (inactive) | 2.31 µM (inactive) | 11.5 µM (inactive) | 11.5 µM (inactive) | 1.91 µM (inactive) | 2.94 µM (inactive) | 4.34 µM (inactive)
O=C(N/N=C\C=C\c1ccc([N+](=O)[O-])o1)C(=O)N/N=C\C=C\c1ccc([N+](=O)[O-])o1 | > 100 µM (inactive) | > 100 µM (inactive) | > 100 µM (inactive) | 44.1 µM (inactive) | 82.2 µM (inactive) | 36.2 µM (inactive) | > 100 µM (inactive) | > 100 µM (inactive) | > 100 µM (inactive) | 56.9 µM (inactive) | > 100 µM (inactive) | > 100 µM (inactive) | > 100 µM (inactive) | 78.2 µM (inactive) | > 100 µM (inactive) | > 100 µM (inactive) | > 100 µM (inactive) | 25.1 µM (inactive) | > 100 µM (inactive) | 34.9 µM (inactive)
CSc1ccc2c(c1)C(N1CCN(C)CC1)Cc1ccccc1S2 (stereo not given) | 4.3 µM (inactive) | 3.63 µM (inactive) | 7.8 µM (inactive) | 2.36 µM (inactive) | 8.07 µM (inactive) | 8.04 µM (inactive) | 1.82 µM (inactive) | 3.34 µM (inactive) | 1.71 µM (inactive) | 3.35 µM (inactive) | 2.07 µM (inactive) | 7.18 µM (inactive) | 3.83 µM (inactive) | 2.17 µM (inactive) | 10.7 µM (inactive) | 4.33 µM (inactive) | 2.67 µM (inactive) | 3.84 µM (inactive) | 2.72 µM (inactive) | 2.3 µM (inactive)
NC(=S)N1N=C(c2ccccc2O)CC1c1ccccc1 (stereo not given) | 5.24 µM (inactive) | 19.3 µM (inactive) | 15 µM (inactive) | 4.45 µM (inactive) | 4.95 µM (inactive) | 17.6 µM (inactive) | 10.2 µM (inactive) | 20.4 µM (inactive) | 16.1 µM (inactive) | 20.1 µM (inactive) | 15.3 µM (inactive) | 16 µM (inactive) | 6.43 µM (inactive) | 11.4 µM (inactive) | 27 µM (inactive) | 20.8 µM (inactive) | 17.9 µM (inactive) | 12.8 µM (inactive) | 5.25 µM (inactive) | 18.2 µM (inactive)
COc1ccccc1/C=C/C1=NN(c2cccc(S(=O)(=O)O)c2)C2(C1)C(Cl)C(=O)N2c1nc2ccccc2s1 (stereo not given) | 76.6 µM (inactive) | 16.9 µM (inactive) | 28 µM (inactive) | 40.7 µM (inactive) | > 100 µM (inactive) | 12.1 µM (inactive) | 28.6 µM (inactive) | 43.4 µM (inactive) | > 100 µM (inactive) | 45.1 µM (inactive) | 56.8 µM (inactive) | 71.4 µM (inactive) | 89.3 µM (inactive) | 28.5 µM (inactive) | 67 µM (inactive) | 49.2 µM (inactive) | > 100 µM (inactive) | 61.9 µM (inactive) | > 100 µM (inactive) | 42.2 µM (inactive)
COc1cc2ccnc3c2c(c1O)N(C)C=C3 | 13.8 µM (inactive) | 7.66 µM (inactive) | 18 µM (inactive) | 7.35 µM (inactive) | 22 µM (inactive) | 7.38 µM (inactive) | 12.8 µM (inactive) | 17.4 µM (inactive) | 6.12 µM (inactive) | 16.2 µM (inactive) | 15.6 µM (inactive) | 20.2 µM (inactive) | 7.78 µM (inactive) | 6.11 µM (inactive) | 23.7 µM (inactive) | 9.08 µM (inactive) | 16.7 µM (inactive) | 4 µM (inactive) | 17.7 µM (inactive) | 16 µM (inactive)
Cc1cc(Cc2c(F)c(F)c(Cc3cc(C)no3)c(F)c2F)on1 | > 100 µM (inactive) | > 100 µM (inactive) | > 100 µM (inactive) | > 100 µM (inactive) | 25.4 µM (inactive) | > 100 µM (inactive) | 28.4 µM (inactive) | > 100 µM (inactive) | > 100 µM (inactive) | 54.2 µM (inactive) | > 100 µM (inactive) | 12.9 µM (inactive) | 39.9 µM (inactive) | > 100 µM (inactive) | > 100 µM (inactive) | > 100 µM (inactive) | > 100 µM (inactive) | > 100 µM (inactive) | 32.7 µM (inactive) | > 100 µM (inactive)
Nc1nc(Cl)cc(Oc2ccc(Cl)cc2)n1 | > 100 µM (inactive) | 29.9 µM (inactive) | > 100 µM (inactive) | > 53.2 µM (inactive) | > 100 µM (inactive) | 32.4 µM (inactive) | > 56.6 µM (inactive) | > 100 µM (inactive) | 34.3 µM (inactive) | 28.2 µM (inactive) | 38.5 µM (inactive) | > 100 µM (inactive) | > 55.8 µM (inactive) | > 100 µM (inactive) | > 56.2 µM (inactive) | 28.2 µM (inactive) | > 56.1 µM (inactive) | > 57.9 µM (inactive) | > 100 µM (inactive) | > 53.2 µM (inactive)
O=C(/C=C/c1cccc(Br)c1)c1ccc(Cl)cc1 | 15 µM (inactive) | 15.5 µM (inactive) | 18.8 µM (inactive) | 4.38 µM (inactive) | 19.2 µM (inactive) | 12.8 µM (inactive) | 14.2 µM (inactive) | 16 µM (inactive) | 14 µM (inactive) | 13 µM (inactive) | 17.1 µM (inactive) | 16.8 µM (inactive) | 17.5 µM (inactive) | 17.1 µM (inactive) | 14.8 µM (inactive) | 17 µM (inactive) | 15.6 µM (inactive) | 5.35 µM (inactive) | 15.3 µM (inactive) | 4.36 µM (inactive)
CC1CCCC(C(=O)CC2CC(=O)NC(=O)C2)C1=O (stereo not given) | > 100 µM (inactive) | > 100 µM (inactive) | > 100 µM (inactive) | > 100 µM (inactive) | > 100 µM (inactive) | > 100 µM (inactive) | > 100 µM (inactive) | > 100 µM (inactive) | > 100 µM (inactive) | > 100 µM (inactive) | > 100 µM (inactive) | > 100 µM (inactive) | > 100 µM (inactive) | > 100 µM (inactive) | > 100 µM (inactive) | > 100 µM (inactive) | > 100 µM (inactive) | > 100 µM (inactive) | > 100 µM (inactive) | > 100 µM (inactive)
COC1=CC(=O)c2c(cc(COP(N)(=O)N(CCCl)CCCl)n2C)C1=O (stereo not given) | 1.49 µM (inactive) | 0.557 µM (active) | 0.14 µM (active) | 0.0767 µM (active) | 2.18 µM (inactive) | < 0.0486 µM (active) | 1.36 µM (inactive) | 0.676 µM (active) | 1.4 µM (inactive) | 1.67 µM (inactive) | 3.28 µM (inactive) | 0.918 µM (active) | 0.189 µM (active) | 0.17 µM (active) | 1.75 µM (inactive) | 0.471 µM (active) | 1.26 µM (inactive) | 0.122 µM (active) | 1.84 µM (inactive) | 3.52 µM (inactive)
CCCCCNC1=CC(=O)c2ccccc2C1=O | 37.6 µM (inactive) | > 51.6 µM (inactive) | 31.6 µM (inactive) | > 72.3 µM (inactive) | 23.9 µM (inactive) | 27.5 µM (inactive) | 17.9 µM (inactive) | > 58.9 µM (inactive) | 34.5 µM (inactive) | 30.2 µM (inactive) | > 60.5 µM (inactive) | 42.8 µM (inactive) | 26.3 µM (inactive) | 33.2 µM (inactive) | 53.3 µM (inactive) | 19.5 µM (inactive) | > 100 µM (inactive) | 22.9 µM (inactive) | 21.6 µM (inactive) | 59.7 µM (inactive)
NC(=O)[C@H](Cc1ccc(O)cc1)NC1=C(Cl)C(=O)c2c(O)ccc(O)c2C1=O | 2.24 µM (inactive) | 4 µM (inactive) | > 10 µM (inactive) | 1.32 µM (inactive) | > 10 µM (inactive) | 2.15 µM (inactive) | 1.47 µM (inactive) | > 10 µM (inactive) | 1.96 µM (inactive) | 2.72 µM (inactive) | 3.15 µM (inactive) | 7.73 µM (inactive) | > 10 µM (inactive) | 2.07 µM (inactive) | 6.53 µM (inactive) | 2.47 µM (inactive) | 8.89 µM (inactive) | 1.57 µM (inactive) | 9.02 µM (inactive) | 1.83 µM (inactive)
COc1ccc(N2C(=O)C3c4[nH]c5ccccc5c4C4C(C)CCCC4C3C2=O)cc1 (stereo not given) | 17.7 µM (inactive) | > 76.7 µM (inactive) | 41.3 µM (inactive) | 37.2 µM (inactive) | 23.6 µM (inactive) | > 78.7 µM (inactive) | 35 µM (inactive) | > 39.4 µM (inactive) | 8.69 µM (inactive) | > 88.3 µM (inactive) | 39.3 µM (inactive) | > 45.1 µM (inactive) | 16.4 µM (inactive) | 10 µM (inactive) | > 83 µM (inactive) | 3.64 µM (inactive) | > 63.8 µM (inactive) | 13 µM (inactive) | 44.6 µM (inactive) | 33.7 µM (inactive)

From ChEMBL document CHEMBL1201862, “PubChem BioAssay data set” (2004)
